Experimental data as given in US20060271062A1 (priority 2005, published 2006).
Where two headings read alike, the source gives them in different places.

Key:
lens epithelial cell = details: in vitro; cited from earlier work
[1] = test system: residual lens epithelial cells; details: rabbit, in vivo
lens epithelial cells [2] = details: rabbit, in vivo
[3] = test system: residual lens epithelial cells; assay type: cell-based, human
lens epithelial cells [4] = assay type: cell-based, human
trabecular meshwork = details: cited from earlier work
[5] = test system: residual lens epithelial cells; assay: Intracapsular latrunculin-B during extracapsular lens extraction in rabbits (Example 1); assay type: in vivo, rabbit; details: 2 μM
[6] = test system: lens, lens capsule or corneal endothelium and other adjacent tissues; details: outflow facility-effective concentrations, infusion for 45-90 min; cited from earlier work
[7] = 1 ml intracapsular for 10 minutes then 5 min irrigation/aspiration, vehicle 0.25% DMSO, light microscopy of fixed capsular bag

Row | SMILES | Inhibiting lens epithelial cell proliferation (lens epithelial cell) | Lens epithelial cells removed in comparison to control vehicle, determined by LM [1] | PCO formation or severity in comparison to control vehicle (lens epithelial cells [2]) | Lens epithelial cells removed in comparison to control vehicle, determined by LM [3] | PCO formation or severity in comparison to control vehicle (lens epithelial cells [4]) | other results
1 | CO[C@@]12[C@H](COC(N)=O)C3=C(C(=O)C(C)=C(N)C3=O)N1C[C@@H]1N[C@@H]12 [mitomycin C] | effective |  |  |  |  | 
2 | CC1CNCCN1S(=O)(=O)c1cccc2cnccc12 (stereo not drawn) [H-7, 1-(5-isoquinolinyl-sulfonyl)-2-methylpiperazine] |  | more lens epithelial cells be removed | prevent the formation or reduce the severity of PCO | more lens epithelial cells be removed | prevent the formation or reduce the severity of PCO | Outflow facility (trabecular meshwork; monkey, in vivo): significantly increased
3 | COc1cc2c(c(OC)c1OC)-c1ccc(OC)c(=O)cc1[C@@H](NC(C)=O)CC2 [colchicine] | effective |  |  |  |  | 
4 | COc1cccc2c1C(=O)c1c(O)c3c(c(O)c1C2=O)C[C@@](O)(C(C)=O)C[C@@H]3O[C@H]1C[C@H](N)[C@H](O)[C@H](C)O1 [daunomycin] | effective |  |  |  |  | 
5 | O=c1[nH]cc(F)c(=O)[nH]1 [5-fluorouracil] | effective |  |  |  |  | 
6 | C/C1=C/C(=O)O[C@@H]2C[C@@H](CC[C@H](C)/C=C\CC1)O[C@@](O)([C@@H]1CSC(=O)N1)C2 [latrunculin-B] |  | more lens epithelial cells be removed | prevent the formation or reduce the severity of PCO | more lens epithelial cells be removed | prevent the formation or reduce the severity of PCO | Clearance of residual lens epithelial cells during the extracapsular lens extraction [5]: facilitated the clearance; Area A (dirty area with dense residual materials): treated eye versus vehicle-treated eye [5, 7]: no difference; Area B (relatively clean area): residual lens epithelial cells versus vehicle-treated eye [5, 7]: fewer residual lens epithelial cells; Observable damage to the lens, lens capsule or corneal endothelium and other adjacent tissues [6]: did not induce any observable damage; Outflow facility (trabecular meshwork; living monkeys, all concentrations named in b65 (latrunculin-B 0.5-2 μM, 0.01% topical; H-7 100-300 μM, 5% topical)): significantly increased
